Publication PMC4965013, “Open Source Drug Discovery with the Malaria Box Compound Collection for Neglected Diseases and Beyond” (PLoS Pathogens, 2016)

Key:
Cryptosporidium parvum = Cryptosporidium parvum high content microscopy in HCT-8
[1] = tested on: P. falciparum W2 apicoplast; settings: ref [60]; cited from earlier work
[2] = target: T1, 6-Phosphogluconolactonase (Plasmodium falciparum, UniProt Q8IKU0); experiment: Bioaffinity Mass Spectrometry Screening, 6-Phosphogluconolactonase; format: binding; settings: compound:protein ~5:1
T1 construct: […]; His6 with linker ([…]) (N); made in house
Method: Bioaffinity Mass Spectrometry Screening Method
Recombinant proteins were prepared by the Van Voorhis group according to the same protocol as in [25]. Proteins were buffer-exchanged into a suitable volatile buffer (ammonium acetate or ammonium bicarbonate) for native ESI-MS. Depending on the protein, the buffer and its concentration is chosen to obtain the highest sensitivity in the mass spectrometer. We have chosen ammonium acetate buffer (10mM, pH 7) for these two proteins, dUTPase and 6-Phosphogluconolactonase.
High-resolution Fourier transform mass spectrometry (FTMS) can identify the molecular weight of the bound ligand. The difference between the mass-to-charge ratio (Δm/z) for the unbound protein and the [protein-bound ligand] complex ions was multiplied by the charge state (z) to directly afford the molecular weight of the bound ligand, using the following equation.
The BMSS assay was performed on 400 Malaria Box compounds against 25 Plasmodium falciparum proteins, which are critical in malaria cell growth and invasion. Pools of eight Malaria Box compounds (each compound 1 µL, 1 mM in methanol) were incubated with a P. falciparum protein one hour at room temperature. When a non-covalent complex was found, the molecular weight of the binding compound was deducted from the spectrum. On the basis of this information, a binding confirmation on the selected compound was performed. […]

[3] = tested on: P. falciparum 3D7 trophozoites; experiment: Metabolomic fingerprint profiling LC-MS; format: cell-based, Plasmodium falciparum; design: UDP-D-glucose / ADP-D-glucose: unit not given here
[4] = tested on: P. falciparum Dd2 apicoplast; settings: ref [61]; cited from earlier work
P. falciparum = experiment: EC50 listed in S2 Table Metabolomics (used to set the concentration tested); format: cell-based; settings: Plasmodium falciparum; EC50 used for Factor_XEC50 in metabolomics; read-out: EC50_nM
[5] = tested on: S. mansoni newly transformed schistosomula (NTS); design: method as in ref [91] (a number printed in a supplementary file, which may have a reference list of its own: not looked up in the article's list); settings: ref [91]; read-out: Schistosoma mansoni newly transformed schistosomula EC50 J. Keiser; cited from earlier work
[6] = tested on: Schistosoma mansoni adult males; experiment: S. mansoni adult phenotypic and motility screen Caffrey
[7] = tested on: Schistosoma mansoni schistosomula (somules); experiment: S. mansoni somules phenotypic screen Caffrey; settings: 2.5 µM, 48 h
S. mansoni adult worms = tested on: S. mansoni adult worms; design: method as in ref [91] (a number printed in a supplementary file, which may have a reference list of its own: not looked up in the article's list); settings: ref [91]; read-out: Schistosoma mansoni adult worm EC50 J. Keiser; cited from earlier work
[8] = design: method as in ref WuXi; settings: WuXi's Acceptance Range For Positive Controls; ref WuXi; cited from earlier work
[9] = cited from earlier work
CYP 2C19 = settings: cited from earlier work
5-HT4 receptor = target: T2, 5-HT4 receptor (Homo sapiens, UniProt Q13639); experiment: 5-HT4 radioligand binding; settings: reference compound
T2 construct: expressed in transfected cells; host or cells: HeLa

M3 receptor = target: T3, M3 receptor (Homo sapiens, UniProt P20309); experiment: M3 radioligand binding; settings: reference compound
T3 construct: purchased Perkin Elmer

Mycobacterium marinum = experiment: M. marinum antibiotic assay; format: cell-based; settings: 10µM
Method: Columns FA-FC: Soldati Group (data presented first in this paper). M. marinum, D. discoideum, and Acathamoeba castellani assays. Each compound of the Malaria Box has been assayed at 10 µM in all three assays. First, the antibiotic activity was assayed directly against Mycobacterium marinum in its culture medium. Second, the toxicity and growth inhibitory effect of the compounds was assayed against the amoeba Dictyostelium discoideum in its culture medium. Finally, the “in cellulo” anti-infective activity of each compound was tested using the intracellular infection system Acanthamoeba castellanii-M. marinum. Values have been normalized using the DMSO carrier. For each assay, values have been normalized to 1.00 using the DMSO carrier, which has no detectable effect on D. discoideum nor M. marinum growth, while rifabutin was used as positive control for the antibiotic assay and the infection assay, as it abolishes M. marinum growth (normalized value under 0.10) in broth at 10 µM and intracellularly at 30 µM [150].

[10] = tested on: Mycobacterium marinum in Acanthamoeba castellanii; design: method as in ref [150] (a number printed in a supplementary file, which may have a reference list of its own: not looked up in the article's list); settings: 30 µM; ref [150]; cited from earlier work
Dictyostelium discoideum = settings: 7.5 µM; ref [150]; cited from earlier work
[11] = metabolite level change after treatment

T1 sequence (Q8IKU0 1-327): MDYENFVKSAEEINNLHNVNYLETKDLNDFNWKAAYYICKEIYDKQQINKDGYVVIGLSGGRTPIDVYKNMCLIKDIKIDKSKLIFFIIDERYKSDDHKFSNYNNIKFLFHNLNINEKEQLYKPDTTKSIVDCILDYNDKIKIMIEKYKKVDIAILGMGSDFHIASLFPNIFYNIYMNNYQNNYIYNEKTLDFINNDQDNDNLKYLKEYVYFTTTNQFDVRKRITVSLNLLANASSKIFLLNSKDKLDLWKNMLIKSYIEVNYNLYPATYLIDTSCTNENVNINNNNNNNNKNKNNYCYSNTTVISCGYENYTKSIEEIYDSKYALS
T2 sequence (Q13639 whole entry): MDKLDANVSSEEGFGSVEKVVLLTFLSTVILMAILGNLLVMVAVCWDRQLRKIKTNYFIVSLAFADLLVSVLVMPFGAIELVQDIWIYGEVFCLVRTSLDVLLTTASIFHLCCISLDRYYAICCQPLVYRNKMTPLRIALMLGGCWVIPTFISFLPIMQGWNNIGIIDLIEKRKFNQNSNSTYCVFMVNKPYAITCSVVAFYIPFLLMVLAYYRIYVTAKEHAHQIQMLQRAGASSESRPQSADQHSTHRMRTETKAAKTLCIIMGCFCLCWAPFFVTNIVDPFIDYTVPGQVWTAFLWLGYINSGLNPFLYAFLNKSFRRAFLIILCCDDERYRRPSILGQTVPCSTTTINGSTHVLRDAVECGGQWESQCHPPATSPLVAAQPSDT
T3 sequence (P20309 whole entry): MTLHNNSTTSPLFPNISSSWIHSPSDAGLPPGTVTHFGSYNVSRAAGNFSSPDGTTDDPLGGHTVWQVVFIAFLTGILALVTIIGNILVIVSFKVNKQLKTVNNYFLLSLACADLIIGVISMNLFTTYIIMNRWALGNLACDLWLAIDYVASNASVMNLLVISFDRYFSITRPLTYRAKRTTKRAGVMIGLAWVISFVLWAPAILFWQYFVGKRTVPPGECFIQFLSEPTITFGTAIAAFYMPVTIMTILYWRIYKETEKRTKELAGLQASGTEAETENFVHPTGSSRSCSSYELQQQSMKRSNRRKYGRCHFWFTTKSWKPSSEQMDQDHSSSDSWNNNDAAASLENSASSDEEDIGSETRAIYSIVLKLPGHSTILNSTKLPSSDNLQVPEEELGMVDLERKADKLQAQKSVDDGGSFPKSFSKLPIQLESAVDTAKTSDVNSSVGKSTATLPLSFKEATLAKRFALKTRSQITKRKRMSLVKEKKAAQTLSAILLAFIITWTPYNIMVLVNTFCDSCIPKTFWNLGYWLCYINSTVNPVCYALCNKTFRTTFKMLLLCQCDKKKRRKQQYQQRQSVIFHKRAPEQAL

## O=C(Nc1ccc(Cl)cc1)N1CCN(c2ccc3nncn3n2)CC1 [MMV665917]
Cryptosporidium parvum
  Selectivity Index C. parvum over mammalian cells: > 20

## O=C(O)C1Cc2c([nH]c3ccccc23)C(c2ccc(Cl)cc2Cl)N1 (stereo not shown) [MMV008138]
[1]
  rescue by IPP supplementation in words: highest level of rescue
[2]
  binding to 6-Phosphogluconolactonase (confirmation): binding
[3]; S2 Table Metabolomics, metabolite Acetyllysine
  Acetyllysine: 0.5387
[3]; S2 Table Metabolomics, metabolite N-acetyl-L-ornithine
  N-acetyl-L-ornithine: 0.5503
[3]; S2 Table Metabolomics, metabolite N-carbamoyl-L-aspartate
  N-carbamoyl-L-aspartate: 0.144
[3]; S2 Table Metabolomics, metabolite NADPH
  NADPH: 0.4869
[3]; S2 Table Metabolomics, metabolite dAMP
  dAMP: 0.6135
[3]; S2 Table Metabolomics, metabolite dCMP
  dCMP: 0.1541
[3]; S2 Table Metabolomics, metabolite dTDP
  dTDP: 0.7214
[3]; S2 Table Metabolomics, metabolite dTMP
  dTMP: 0.483
[3]; S2 Table Metabolomics, metabolite dTTP
  dTTP: 0.2857
[3]; S2 Table Metabolomics, metabolite dihydroorotate
  dihydroorotate: 0.2096
[3]; S2 Table Metabolomics, metabolite orotate
  orotate: 0.1204
[3]; S2 Table Metabolomics, peptide DLH
  DLH: -0.1546
[3]; S2 Table Metabolomics, peptide DLS/SDL/SID
  DLS/SDL/SID: 0.007657
[3]; S2 Table Metabolomics, peptide PD
  PD: 0.2545
[3]; S2 Table Metabolomics, peptide PEE
  PEE: 0.5615
[3]; S2 Table Metabolomics, peptide PVNF
  PVNF: -0.063
[3]; metabolite 3-phosphoglycerate, S2 Table Metabolomics
  3-phosphoglycerate: 0.3297
[3]; metabolite ADP-D-glucose, S2 Table Metabolomics
  ADP-D-glucose: 0.3003
[3]; metabolite ATP, S2 Table Metabolomics
  ATP: 0.2312
[3]; metabolite CDP, S2 Table Metabolomics, change in metabolite level after compound treatment
  CDP: 0.6827
[3]; metabolite D-sedoheptulose-1/7-phosphate, S2 Table Metabolomics, change in metabolite level after compound treatment
  D-sedoheptulose-1/7-phosphate: 0.414
[3]; metabolite FAD, S2 Table Metabolomics
  FAD: 0.2533
[3]; metabolite GMP, S2 Table Metabolomics, change in metabolite level after compound treatment
  GMP: -0.6458
[3]; metabolite NAD+, S2 Table Metabolomics
  NAD+: 0.09564
[3]; metabolite NADP+, S2 Table Metabolomics
  NADP+: 0.2678
[3]; metabolite Octoluse Bisphosphate, S2 Table Metabolomics, change in metabolite level after compound treatment
  Octoluse Bisphosphate: 0.757
[3]; metabolite Pyroglutamic acid, S2 Table Metabolomics
  Pyroglutamic acid: -0.1569
[3]; metabolite UDP-D-glucose, S2 Table Metabolomics
  UDP-D-glucose: 0.2273
[3]; metabolite UDP-D-glucuronate, S2 Table Metabolomics
  UDP-D-glucuronate: 0.2472
[3]; metabolite UDP-N-acetyl-glucosamine, S2 Table Metabolomics
  UDP-N-acetyl-glucosamine: 0.2573
[3]; metabolite UDP, S2 Table Metabolomics, change in metabolite level after compound treatment
  UDP: 0.7153
[3]; metabolite UMP, S2 Table Metabolomics, change in metabolite level after compound treatment
  UMP: -0.1378
[3]; metabolite UTP, S2 Table Metabolomics, change in metabolite level after compound treatment
  UTP: 0.4566
[3]; metabolite a-ketoglutarate, S2 Table Metabolomics
  a-ketoglutarate: -0.4582
[3]; metabolite citrate/isocitrate, S2 Table Metabolomics, change in metabolite level after compound treatment
  citrate/isocitrate: -0.1476
[3]; metabolite cytidine, S2 Table Metabolomics
  cytidine: -0.2541
[3]; metabolite dATP, S2 Table Metabolomics
  dATP: 0.1704
[3]; metabolite dGMP/AMP, S2 Table Metabolomics, change in metabolite level after compound treatment
  dGMP/AMP: 0.6095
[3]; metabolite fumarate, S2 Table Metabolomics, change in metabolite level after compound treatment
  fumarate: 0.1788
[3]; metabolite glucose-1/6-phosphate, S2 Table Metabolomics, change in metabolite level after compound treatment
  glucose-1/6-phosphate: 0.6615
[3]; metabolite glycerate, S2 Table Metabolomics, change in metabolite level after compound treatment
  glycerate: 0.3332
[3]; metabolite guanine, S2 Table Metabolomics, change in metabolite level after compound treatment
  guanine: -0.07738
[3]; metabolite guanosine, S2 Table Metabolomics, change in metabolite level after compound treatment
  guanosine: -0.4378
[3]; metabolite hypoxanthine, S2 Table Metabolomics
  hypoxanthine: -0.1251
[3]; metabolite indole, S2 Table Metabolomics
  indole: -0.05929
[3]; metabolite inosine, S2 Table Metabolomics, change in metabolite level after compound treatment
  inosine: -0.03831
[3]; [11]
  2_3-Diphosphoglyceric acid: 0.5774
  4-phosphopantothenate: 0.6234
  6-phospho-D-gluconate: 0.4127
  FMN: 0.5115
  IMP: 0.3745
  Pyrophosphate: 0.4065
  Sedoheptoluse bisphosphate: 0.7391
  cyclic-AMP: 0.217
  glutathione disulfide: 0.4434
  lactate: -0.4969
  myo-inositol: 0.6581
[3]; metabolite nicotinate, S2 Table Metabolomics
  nicotinate: -0.1339
[3]; metabolite ornithine, S2 Table Metabolomics
  ornithine: 0.07192
[3]; metabolite phosphoenolpyruvate, S2 Table Metabolomics
  phosphoenolpyruvate: 0.04449
[3]; metabolite pyruvate, S2 Table Metabolomics, change in metabolite level after compound treatment
  pyruvate: -0.3198
[3]; metabolite ribose-phosphate, S2 Table Metabolomics
  ribose-phosphate: 0.3445
[3]; metabolite sarcosine/alanine, S2 Table Metabolomics, change in metabolite level after compound treatment
  sarcosine/alanine: 0.05421
[3]; metabolite sn-glycerol-3-phosphate, S2 Table Metabolomics
  sn-glycerol-3-phosphate: -0.3078
[3]; metabolite succinate/methylmalonic acid, S2 Table Metabolomics, change in metabolite level after compound treatment
  succinate/methylmalonic acid: 0.03332
[3]; metabolite uridine, S2 Table Metabolomics, change in metabolite level after compound treatment
  uridine: -0.07029
[3]; metabolite xanthosine, S2 Table Metabolomics, change in metabolite level after compound treatment
  xanthosine: -0.1854
[4]
  apicoplast targeting in words: targets the apicoplast
P. falciparum
  EC50: 350 nM

## O=C(C1CCCCC1)N1CC(=O)N2CCc3ccccc3C2C1 (stereo not shown) [Praziquantel]
[5]
  EC50: 2200 nM
[6]; 48 h, 5µM
  S. mansoni adult males 48hr motility assay: zero
[6]; 48hr at 5 µM
  S. mansoni adult males visual tox scale, 0 = none, 4=most damaged: 4
[7]
  somule severity score: 4
S. mansoni adult worms
  EC50: 200 nM

## NC(=O)N1c2ccccc2C=Cc2ccccc21 [Carbamazepine]
[8]
  Kinetic Solubility pH=7.4: 43 ± 4 µg/mL

## CC(=O)CC(c1ccccc1)c1c(O)c2ccccc2oc1=O (stereo not shown) [Warfarin]
[9]
  Plasma Protein Binding Bound% Human: >98%

## CCC1(c2ccccc2)NC(=O)N(Cc2ccccc2)C1=O (single isomer, unassigned; (+)) [(+)-N-3-benzylnirvanol]
CYP 2C19
  CYP 2C19 IC50 Acceptance Range: 0.100~0.350 μM

## Cn1cc(C(=O)OCC2CCN(CCNS(C)(=O)=O)CC2)c2ccccc21 [GR113808]
5-HT4 receptor
  Ki: 0.45 nM

## O[Si](CCCN1CCCCC1)(c1ccc(F)cc1)C1CCCCC1 (stereo not shown) [p-F-HHSiD]
M3 receptor
  Ki: 34.4 nM

## CO[C@H]1/C=C/O[C@@]2(C)Oc3c(C)c(O)c4c(c3C2=O)C2=NC3(CCN(CC(C)C)CC3)NC2=C(NC(=O)/C(C)=C\C=C\[C@H](C)[C@H](O)[C@@H](C)[C@@H](O)[C@@H](C)[C@H](OC(C)=O)[C@@H]1C)C4=O [rifabutin, reference compound]
Mycobacterium marinum
  Mycobacterium marinum relative growth DMSO=1 Antibiotic Assay: under 0.10
[10]
  M. marinum intracellular growth, normalized value: under 0.10

## CN1CCC[C@H]1c1cccnc1 [Nicotine]
Dictyostelium discoideum
  D. discoideum growth, positive control: abolishes its growth
